Data from patent US5416191A, “Bradykinin antagonists” (Cortech, Inc., priority 1993, dated 1995).
Where two headings read alike, the source gives them in different places. Square brackets hold non-standard residues; d marks the D form. Peptide text beside a SMILES is read from it. * marks the point of attachment. Hyp = O=C(O)[C@@H]1C[C@@H](O)CN1; X8 = O=C1CC(*)C(=O)N1

Tests used:
[1] = biological target: T1, bradykinin receptor of the B2 class (guinea-pig ileum) (Cavia porcellus, UniProt O70526)
T1 sequence (O70526 1-372): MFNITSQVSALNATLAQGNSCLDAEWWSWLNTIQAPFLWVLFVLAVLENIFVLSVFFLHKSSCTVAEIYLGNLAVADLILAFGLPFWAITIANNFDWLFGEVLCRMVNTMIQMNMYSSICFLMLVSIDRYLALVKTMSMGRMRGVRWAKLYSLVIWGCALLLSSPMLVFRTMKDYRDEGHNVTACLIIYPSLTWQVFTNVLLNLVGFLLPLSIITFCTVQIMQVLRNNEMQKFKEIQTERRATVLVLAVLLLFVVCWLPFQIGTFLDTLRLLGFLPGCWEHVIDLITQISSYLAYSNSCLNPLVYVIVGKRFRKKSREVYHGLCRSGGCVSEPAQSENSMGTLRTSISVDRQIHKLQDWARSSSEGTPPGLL

[2] = biological target: T2, bradykinin receptor of the B2 class (rat uterus) (Rattus norvegicus, UniProt P25023); assay: Rat uterus (RU) in vitro, antagonism of bradykinin
T2 construct: concentration effect curves to bradykinin (BK) on rat uterus in vitro; from tissue; host or cells: rat uterus
T2 sequence (P25023 1-396): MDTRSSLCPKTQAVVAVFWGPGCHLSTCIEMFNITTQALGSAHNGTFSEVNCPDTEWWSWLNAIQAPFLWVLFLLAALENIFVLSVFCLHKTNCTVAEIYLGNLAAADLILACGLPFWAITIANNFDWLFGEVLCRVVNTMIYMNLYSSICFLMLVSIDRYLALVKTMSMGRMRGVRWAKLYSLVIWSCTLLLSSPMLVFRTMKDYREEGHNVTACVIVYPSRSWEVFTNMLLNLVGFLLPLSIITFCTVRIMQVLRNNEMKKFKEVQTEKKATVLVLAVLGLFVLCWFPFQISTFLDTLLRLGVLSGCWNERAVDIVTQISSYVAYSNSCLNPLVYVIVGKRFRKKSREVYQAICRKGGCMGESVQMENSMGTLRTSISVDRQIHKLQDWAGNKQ
Experimental: Thus in vitro studies were performed on standard assay systems, namely, guinea-pig ileum (GPI), rat uterus (RU) and rabbit jugular vein (RJV). […] The PA2 can be defined as the negative logarithm of the molar concentration of the antagonist in the presence of which the potency of the agonist is reduced two-fold, i.e. twice the amount of agonist is required to produce a given response in the presence of, than in the absence of, the antagonist. A high potency of antagonism is indicated by a high PA2 value, i.e., a low concentration of antagonist is effective.
The percentage recovery (% Rec) was also determined for compounds with respect to each assay.
With respect to duration of activity, it is noted that after exposure to the highest concentration of antagonist, each tissue was washed extensively and then assessed for recovery from the antagonist effect.
Potency in the rat uterus assay was assessed as described above and PA2 values determined.

[3] = Table D, effect of linker length, read-out: pA2 (UTERUS) (converted)

Structure (SMILES)	Kb [1] [nM]	% REC (40 MIN) ([2]; Table D) [%]	Kb [2, 3] [nM]	also measured
CC(C)C[C@H](NC(=O)[C@@H](Cc1ccccc1)NC(=O)[C@H](CSSC[C@H](NC(=O)[C@H](Cc1ccccc1)NC(=O)CNC(=O)[C@@H]1C[C@@H](O)CN1C(=O)[C@@H]1CCCN1C(=O)[C@H](CCCNC(=N)N)NC(=O)[C@H](N)CCCNC(=N)N)C(=O)N[C@H](Cc1ccccc1)C(=O)N[C@@H](CC(C)C)C(=O)N[C@@H](CCCNC(=N)N)C(=O)O)NC(=O)[C@H](Cc1ccccc1)NC(=O)CNC(=O)[C@@H]1C[C@@H](O)CN1C(=O)[C@@H]1CCCN1C(=O)[C@H](CCCNC(=N)N)NC(=O)[C@H](N)CCCNC(=N)N)C(=O)N[C@@H](CCCNC(=N)N)C(=O)O [CP-0138] (HELM PEPTIDE1{[dR].R.P.[Hyp].G.F.C.[dF].L.R}|PEPTIDE2{[dR].R.P.[Hyp].G.F.C.[dF].L.R}$PEPTIDE1,PEPTIDE2,7:R3-7:R3$$$V2.0)	~631	–	–	RAT UTERUS % RECOVERED ([2]; Table E): 100%; Kb ([2]; Table E, read-out: RAT UTERUS pA2 (converted)): 39.8 nM
CC(C)C[C@H](NC(=O)[C@@H](Cc1ccccc1)NC(=O)[C@H](CO)NC(=O)[C@H](Cc1ccccc1)NC(=O)CNC(=O)[C@@H]1C[C@@H](O)CN1C(=O)[C@H](CS)NC(=O)[C@H](CCCNC(=N)N)NC(=O)[C@H](N)CCCNC(=N)N)C(=O)N[C@@H](CCCNC(=N)N)C(=O)O [CP-0142] (HELM PEPTIDE1{[dR].R.C.[Hyp].G.F.S.[dF].L.R}$$$$V2.0)	~2000	–	–	% REC MONOMER ([2]; Table C, rat uterus): 80%; Kb ([2]; Table C, rat uterus, P.A. = Partial Agonist, read-out: pA2 MONOMER (converted)): 398 nM
CC(C)C[C@H](NC(=O)[C@@H](Cc1ccccc1)NC(=O)[C@H](CO)NC(=O)[C@H](Cc1ccccc1)NC(=O)CNC(=O)[C@@H]1C[C@@H](O)CN1C(=O)[C@H](CSC1CC(=O)N(CCCCCCN2C(=O)CC(SC[C@H](NC(=O)[C@H](CCCNC(=N)N)NC(=O)[C@H](N)CCCNC(=N)N)C(=O)N3C[C@H](O)C[C@H]3C(=O)NCC(=O)N[C@@H](Cc3ccccc3)C(=O)N[C@@H](CO)C(=O)N[C@H](Cc3ccccc3)C(=O)N[C@@H](CC(C)C)C(=O)N[C@@H](CCCNC(=N)N)C(=O)O)C2=O)C1=O)NC(=O)[C@H](CCCNC(=N)N)NC(=O)[C@H](N)CCCNC(=N)N)C(=O)N[C@@H](CCCNC(=N)N)C(=O)O (stereo partly drawn) [CP-0154] (HELM PEPTIDE1{[dR].R.C.[Hyp].G.F.S.[dF].L.R}|PEPTIDE2{[dR].R.C.[Hyp].G.F.S.[dF].L.R}|CHEM1{[O=C1CC([*:1])C(=O)N1CCCCCCN1C(=O)CC([*:2])C1=O]}$PEPTIDE1,CHEM1,3:R3-1:R1|PEPTIDE2,CHEM1,3:R3-1:R2$$$V2.0)	~25.1	–	–	% REC DIMER ([2]; Table C, rat uterus): 90%; Kb ([2]; Table C, rat uterus, read-out: pA2 DIMER (converted)): 63.1 nM
CC(C)C[C@H](NC(=O)[C@@H](Cc1ccccc1)NC(=O)[C@H](CO)NC(=O)[C@H](Cc1ccccc1)NC(=O)CNC(=O)[C@H](CS)NC(=O)[C@@H]1CCCN1C(=O)[C@H](CCCNC(=N)N)NC(=O)[C@H](N)CCCNC(=N)N)C(=O)N[C@@H](CCCNC(=N)N)C(=O)O [CP-0143] (HELM PEPTIDE1{[dR].R.P.C.G.F.S.[dF].L.R}$$$$V2.0)	~316	–	–	pA2 MONOMER ([2]; Table C, rat uterus, P.A. = Partial Agonist): P.A.
CC(C)C[C@H](NC(=O)[C@@H](Cc1ccccc1)NC(=O)[C@H](CSC1CC(=O)NC1=O)NC(=O)[C@H](Cc1ccccc1)NC(=O)CNC(=O)[C@@H]1C[C@@H](O)CN1C(=O)[C@@H]1CCCN1C(=O)[C@H](CCCNC(=N)N)NC(=O)[C@H](N)CCCNC(=N)N)C(=O)N[C@@H](CCCNC(=N)N)C(=O)O (stereo partly drawn) [CP-0139] (H-[dR]RP[Hyp]GFC(X8)[dF]LR-OH)	~79.4	–	–	–
CC(C)C[C@H](NC(=O)[C@@H](Cc1ccccc1)NC(=O)[C@H](CSC1CC(=O)N(CCCCCCCCCCN2C(=O)CC(SC[C@H](NC(=O)[C@H](Cc3ccccc3)NC(=O)CNC(=O)[C@@H]3C[C@@H](O)CN3C(=O)[C@@H]3CCCN3C(=O)[C@H](CCCNC(=N)N)NC(=O)[C@H](N)CCCNC(=N)N)C(=O)N[C@H](Cc3ccccc3)C(=O)N[C@@H](CC(C)C)C(=O)N[C@@H](CCCNC(=N)N)C(=O)O)C2=O)C1=O)NC(=O)[C@H](Cc1ccccc1)NC(=O)CNC(=O)[C@@H]1C[C@@H](O)CN1C(=O)[C@@H]1CCCN1C(=O)[C@H](CCCNC(=N)N)NC(=O)[C@H](N)CCCNC(=N)N)C(=O)N[C@@H](CCCNC(=N)N)C(=O)O (stereo partly drawn) [CP-0230] (HELM PEPTIDE1{[dR].R.P.[Hyp].G.F.C.[dF].L.R}|PEPTIDE2{[dR].R.P.[Hyp].G.F.C.[dF].L.R}|CHEM1{[O=C1CC([*:1])C(=O)N1CCCCCCCCCCN1C(=O)CC([*:2])C1=O]}$PEPTIDE1,CHEM1,7:R3-1:R1|PEPTIDE2,CHEM1,7:R3-1:R2$$$V2.0)	–	0	3.98	–
CC(C)C[C@H](NC(=O)[C@@H](Cc1ccccc1)NC(=O)[C@H](CO)NC(=O)[C@H](Cc1ccccc1)NC(=O)CNC(=O)[C@@H]1C[C@@H](O)CN1C(=O)[C@@H]1CCCN1C(=O)[C@H](CS)NC(=O)[C@H](N)CCCNC(=N)N)C(=O)N[C@@H](CCCNC(=N)N)C(=O)O [CP-0141] (HELM PEPTIDE1{[dR].C.P.[Hyp].G.F.S.[dF].L.R}$$$$V2.0)	~1000	–	–	–
CC(C)C[C@H](NC(=O)[C@@H](Cc1ccccc1)NC(=O)[C@H](CSC1CC(=O)N(CCCN2C(=O)CC(SC[C@H](NC(=O)[C@H](Cc3ccccc3)NC(=O)CNC(=O)[C@@H]3C[C@@H](O)CN3C(=O)[C@@H]3CCCN3C(=O)[C@H](CCCNC(=N)N)NC(=O)[C@H](N)CCCNC(=N)N)C(=O)N[C@H](Cc3ccccc3)C(=O)N[C@@H](CC(C)C)C(=O)N[C@@H](CCCNC(=N)N)C(=O)O)C2=O)C1=O)NC(=O)[C@H](Cc1ccccc1)NC(=O)CNC(=O)[C@@H]1C[C@@H](O)CN1C(=O)[C@@H]1CCCN1C(=O)[C@H](CCCNC(=N)N)NC(=O)[C@H](N)CCCNC(=N)N)C(=O)N[C@@H](CCCNC(=N)N)C(=O)O (stereo partly drawn) [CP-0172] (HELM PEPTIDE1{[dR].R.P.[Hyp].G.F.C.[dF].L.R}|PEPTIDE2{[dR].R.P.[Hyp].G.F.C.[dF].L.R}|CHEM1{[O=C1CC([*:1])C(=O)N1CCCN1C(=O)CC([*:2])C1=O]}$PEPTIDE1,CHEM1,7:R3-1:R1|PEPTIDE2,CHEM1,7:R3-1:R2$$$V2.0)	–	90	2.51	–
CC(C)C[C@H](NC(=O)[C@@H](Cc1ccccc1)NC(=O)[C@H](CSC1CC(=O)N(CCCCCCCCN2C(=O)CC(SC[C@H](NC(=O)[C@H](Cc3ccccc3)NC(=O)CNC(=O)[C@@H]3C[C@@H](O)CN3C(=O)[C@@H]3CCCN3C(=O)[C@H](CCCNC(=N)N)NC(=O)[C@H](N)CCCNC(=N)N)C(=O)N[C@H](Cc3ccccc3)C(=O)N[C@@H](CC(C)C)C(=O)N[C@@H](CCCNC(=N)N)C(=O)O)C2=O)C1=O)NC(=O)[C@H](Cc1ccccc1)NC(=O)CNC(=O)[C@@H]1C[C@@H](O)CN1C(=O)[C@@H]1CCCN1C(=O)[C@H](CCCNC(=N)N)NC(=O)[C@H](N)CCCNC(=N)N)C(=O)N[C@@H](CCCNC(=N)N)C(=O)O (stereo partly drawn) [CP-0211] (HELM PEPTIDE1{[dR].R.P.[Hyp].G.F.C.[dF].L.R}|PEPTIDE2{[dR].R.P.[Hyp].G.F.C.[dF].L.R}|CHEM1{[O=C1CC([*:1])C(=O)N1CCCCCCCCN1C(=O)CC([*:2])C1=O]}$PEPTIDE1,CHEM1,7:R3-1:R1|PEPTIDE2,CHEM1,7:R3-1:R2$$$V2.0)	–	25	3.98	–
CC(C)C[C@H](NC(=O)[C@@H](Cc1ccccc1)NC(=O)[C@H](CSC1CC(=O)N(CCCCCCCCCCCCN2C(=O)CC(SC[C@H](NC(=O)[C@H](Cc3ccccc3)NC(=O)CNC(=O)[C@@H]3C[C@@H](O)CN3C(=O)[C@@H]3CCCN3C(=O)[C@H](CCCNC(=N)N)NC(=O)[C@H](N)CCCNC(=N)N)C(=O)N[C@H](Cc3ccccc3)C(=O)N[C@@H](CC(C)C)C(=O)N[C@@H](CCCNC(=N)N)C(=O)O)C2=O)C1=O)NC(=O)[C@H](Cc1ccccc1)NC(=O)CNC(=O)[C@@H]1C[C@@H](O)CN1C(=O)[C@@H]1CCCN1C(=O)[C@H](CCCNC(=N)N)NC(=O)[C@H](N)CCCNC(=N)N)C(=O)N[C@@H](CCCNC(=N)N)C(=O)O (stereo partly drawn) [CP-0166] (HELM PEPTIDE1{[dR].R.P.[Hyp].G.F.C.[dF].L.R}|PEPTIDE2{[dR].R.P.[Hyp].G.F.C.[dF].L.R}|CHEM1{[O=C1CC([*:1])C(=O)N1CCCCCCCCCCCCN1C(=O)CC([*:2])C1=O]}$PEPTIDE1,CHEM1,7:R3-1:R1|PEPTIDE2,CHEM1,7:R3-1:R2$$$V2.0)	–	0	6.31	–
